Measured values: patent publication US12208108B2, “Drug targets of delayed aging and human brain diseases” (Texas Tech University System, priority 2016, dated 2025)

Key:
SHSY5Y cells [1] = assay: H2O2 production (Amplex Red); type: cell-based, Human
Description: Mitochondrial function assays. Hydrogen peroxide production. Using an Amplex® Red H2O2 Assay Kit (Molecular Probes, Eugene, Oreg.), the inventors measured the production of H2O2 in independent experiments (n=4) of SHSY5Y neurons treated 1) with and 2) without DDQ, DDQ treated and then incubated with Aβ, as described in Manczak et al..

[2] = system: mutant APPSwe/Ind mouse neuroblastoma (N2a) cells; assay: Co-immunoprecipitation and immunoblotting of mutant APPSwe/Ind cells; type: cell-based; conditions: DDQ 250 nM 24 hrs vs mutant APPSwe/Ind cells untreated with DDQ
Description: Co-immunoprecipitation and immunoblotting analysis of mutant APPSwe/Ind cells treated with DDQ. To determine whether DDQ reduces the interaction of Aβ with Drp1 in mutant APPSwe/Ind cells, the inventors used mutant APPSwe/Ind cDNA construct transfected into mouse neuroblastoma (N2a) cells and further cells were treated with DDQ. The inventors performed immunoprecipitation with Aβ (6E10) antibody and immunoblotting analysis with 6E10 and the inventors also performed co-immunoprecipitation analysis with Aβ (6E10) antibody and immunoblotting analysis with Drp1 antibody. […] These findings further confirm that DDQ reduces full-length APP and 4 kDa Aβ and reduces interaction between Drp1 and Aβ.
(§1) Mutant APPSwe/Ind cells: The inventors purchased mutant APPSwe cDNA clone (pCAX-APPSwe/Ind) from Addgene—https://www.addgene.org and verified expression of mutant APP APPSwe/Ind cDNA and further sub-cloned into a mammalian expression vector (Arubala P. Reddy—unpublished observations). The inventors transfected mutant APPSwe/Ind cDNA into mouse neuroblastoma (N2a) cells for 24 hrs and after transfection, cells were treated with DDQ (250 nM) for 24 hrs. The inventors harvested mutant APPSwe/Ind cells treated and untreated with DDQ and prepared protein lysates and performed co-immunoprecipitation using Aβ (6E10) antibody and conducted immunoblotting analysis with 6E10 and Drp1 antibodies.
The inventors performed co-immunoprecipitation (co-IP) assays using the Dynabeads Kit for Immunoprecipitation (Invitrogen). Briefly, 50 μL of Dynabeads containing protein G was incubated with 10 μg 6E10 or 10 μg of the Drp1 antibodies (both mono- and polyclonal antibodies; Santa Cruz), with rotation, for 1 h at room temperature. The inventors used all the reagents and buffers provided in the kit. Details of antibodies used for co-IP and western blotting are given Table 5. The Dynabeads-Aβ complex was washed three times with a washing buffer and was then incubated overnight with 400 μg of protein at 4° C., with rotation. […]

SHSY5Y cells [3] = assay: Lipid peroxidation assay (HNE); type: cell-based, Human
Description: Lipid peroxidation assay. Lipid peroxidates are unstable indicators of oxidative stress in neurons. 4-hydroxy-2-nonenol (HNE) is the final product of lipid peroxidation that was measured in the cell lysates from SHSY5Y cells of control and experimental treatments (n=4), using an HNE-His ELISA Kit (Cell BioLabs, Inc., San Diego, Calif.) as described in Manczak et al..

SHSY5Y cells [4] = assay: Cytochrome oxidase activity; type: cell-based, Human
Description: Cytochrome oxidase activity. Cytochrome oxidase activity was measured in the mitochondria isolated from SHSY5Y cells of control and experimental treatments (n=4), as described in Manczak et al.^33. Enzyme activity was assayed spectrophotometrically using a Sigma Kit (Sigma-Aldrich) following manufacturer's instructions.

mutant APPSwe/Ind cells = assay: Sandwich ELISA of Aβ40 and Aβ42; type: cell-based, mouse; conditions: DDQ treated vs DDQ untreated mutant APPSwe/Ind cells, protein lysates
Text: FIGS. 9A and 9B show sandwich ELISA analysis of Aβ40 and 42 in mutant APPSwe/Ind cells treated and untreated with DDQ. The inventors performed sandwich ELISA using protein lysates mutant APP cells treated and untreated with DDQ.
DDQ reduces soluble Aβ42 in mutant APPSwe/Ind cells treated with DDQ. To determine whether DDQ reduces Aβ levels, the inventors performed sandwich ELISA using protein lysates of mutant APPSwe/Ind cells treated with DDQ. […] These observations indicate that DDQ reduces Aβ42 levels in mutant APPSwe/Ind cells.
as §1

[5] = Aβ + DDQ (Aβ1-42 20 μM 6 hrs, then DDQ 24 hrs) vs untreated cells
[6] = DDQ 250 nM 24 hrs vs untreated cells
[7] = DDQ + Aβ (DDQ 24 hrs, then Aβ1-42 6 hrs) vs untreated cells

## CCOP(=O)(OCC)C(NCCc1ccc(O)c(O)c1)c1ccnc2ccccc12 (stereo not drawn) [DDQ, diethyl(3,4-dihydroxyphenethylamine)(quinolin-4-yl)methylphosphonate]
SHSY5Y cells [1]; [5]
  H2O2 levels: Significantly increased levels
SHSY5Y cells [1]; Aβ + DDQ (Aβ1-42 6 hrs, then DDQ 24 hrs) vs cells incubated with Aβ
  H2O2 levels: significantly reduced
SHSY5Y cells [1]; [6]
  H2O2 levels: significantly decreased levels
SHSY5Y cells [1]; DDQ + Aβ (DDQ 24 hrs, then Aβ1-42 6 hrs) vs cells incubated with Aβ
  H2O2 levels: significantly reduced
SHSY5Y cells [1]; [7]
  H2O2 levels: Significantly increased levels
[2]
  4 kDa Aβ levels (IP 6E10, WB 6E10): reduced levels
  Drp1 levels (co-IP 6E10, WB Drp1): reduced levels
  full-length APP levels (IP 6E10, WB 6E10): reduced levels
SHSY5Y cells [3]; Aβ + DDQ (Aβ1-42 6 hrs, then DDQ 24 hrs) vs cells incubated with Aβ alone
  lipid peroxidation (4-hydroxy-nonenol) levels: significantly reduced levels
SHSY5Y cells [3]; [6]
  lipid peroxidation (4-hydroxy-nonenol) levels: significantly decreased levels
SHSY5Y cells [3]; DDQ + Aβ (DDQ 24 hrs, then Aβ1-42 6 hrs) vs cells incubated with Aβ alone
  lipid peroxidation (4-hydroxy-nonenol) levels: significantly reduced levels
SHSY5Y cells [4]; [5]
  cytochrome oxidase activity: unchanged
SHSY5Y cells [4]; Aβ + DDQ (Aβ1-42 6 hrs, then DDQ 24 hrs) vs Aβ incubated cells
  cytochrome oxidase activity: increased
SHSY5Y cells [4]; [6]
  cytochrome oxidase activity: significantly increased levels
SHSY5Y cells [4]; DDQ + Aβ (DDQ 24 hrs, then Aβ1-42 6 hrs) vs Aβ incubated cells
  cytochrome oxidase activity: increased
SHSY5Y cells [4]; [7]
  cytochrome oxidase activity: unchanged
Mutant APPSwe/Ind cells
  Aβ40 levels: significantly increased
  Aβ42 levels: significantly decreased levels
